This is an account of results in ChEMBL document CHEMBL1123229, “A molecular mechanics approach to the understanding of presynaptic selectivity for centrally acting dopamine receptor agonists of the phenylpiperidine series” (1986).

Calls of active or inactive are those of the source. The rule behind the calls is not given here.

Test [1] has as its target T1, Dopamine receptor (Rattus norvegicus) (UniProt P25115+P19020+P30729+P18901+P61169). The test is described as follows: Compound was tested for presynaptic agonistic activity against dopamine receptor in limbic system; I= Inactive. Type of test: functional, tissue-based.
In test [2] the target is T1, Dopamine receptor (Rattus norvegicus). The test is described as follows: Compound was tested or presynaptic agonistic activity against dopamine receptor in striatum; I= Inactive. It counts as functional, tissue-based.
The species named for test [3] is Rattus norvegicus. The test can be described thus: Compound was evaluated for postsynaptic agonistic activity using motor activity test in reserpinized rats per 30 min; ns= Not significant. Type of test: functional.
The species named for test [4] is Rattus norvegicus. The test can be described thus: Dose required for postsynaptic agonism using motor activity test in reserpinized rats. Type of test: functional.
The target of test [5] is T1, Dopamine receptor (Rattus norvegicus). The test is described as follows: Compound was tested or presynaptic agonistic activity against dopamine receptor in striatum; Inactive. It counts as functional, tissue-based.
The target is the same in test [6]. The test is described as follows: Compound was tested for presynaptic agonistic activity against dopamine receptor in limbic system; Inactive. It counts as functional, tissue-based.
The test system of test [7] is Rattus norvegicus. The test is described as follows: Dose required for postsynaptic agonism using motor activity test in reserpinized rats; I= Inactive at 2 umol/kg. Type of test: functional, organism-based.
The species named for test [8] is Rattus norvegicus. The test is described as follows: Postsynaptic agonistic activity using motor activity test in reserpinized rats per 30 min. It counts as functional.

With `Oc1cccc2c1CCC(N1CCCCC1)C2` (configuration not stated), the ED50 entry in test [1] and in test [2] was “inactive” each time.

For `Oc1cccc2c1CC[C@@H]1NCCC[C@@H]21`, the Acc. counts in test [3] stood at 10. In test [4], the Dose amounted to 106 µM/kg.

In test [3], `Oc1ccc2c(c1)C1CCCNC1CC2` (configuration not stated) showed an Acc. counts of 10. This compound also gave a Dose in test [4] of 106 µM/kg.

On to `CCCCNC1CCc2c(O)cccc2C1` (configuration not stated), for which the ED50 entry in test [5] and in test [6] was “inactive” each time. Moreover, the Dose entry in test [7] is “inactive”.

Compound `CCCN(CCC)[C@@H]1Cc2cccc(O)c2C[C@H]1C` displayed an Acc. counts in test [8] of 155. This compound also had a Dose in test [4] of 0.31 µM/kg.

Consider `CCNC1CCc2c(O)cccc2C1` (configuration not stated), for which the Acc. counts in test [8] amounted to 181. In addition, the Dose in test [4] came to 2 µM/kg.

As for `CN1CCCC2c3cccc(O)c3CCC21` (configuration not stated), in test [8], the Acc. counts is reported as 40. In addition, the Dose in test [4] came out at 100 µM/kg.

For `CCCN1CCC[C@H]2c3cccc(O)c3CC[C@@H]21`, in test [8], the Acc. counts was 62. In test [4], this compound gave a Dose of 1.3 µM/kg.

As to `CCCN1CCC[C@@H](c2cccc(O)c2)C1` [PRECLAMOL], in test [8], the Acc. counts is recorded as 12. In test [4], the Dose amounted to 213 µM/kg.

`CCCN(C)C1CCc2c(O)cccc2C1` (configuration not stated): in test [8], the Acc. counts was found to be 239. The compound also displayed a Dose in test [4] of 2 µM/kg.

`CNC1CCc2c(O)cccc2C1` (configuration not stated) yielded an Acc. counts in test [3] of 18. The compound further yielded a Dose in test [4] of 100 µM/kg.

Turning to `CCCN1CCC[C@@H](c2ccc(O)c(O)c2)C1`, in test [8], the Acc. counts came to 24. Also, in test [4], the Dose is 50 µM/kg.

In the case of `CN1CCCC2c3cc(O)ccc3CCC21` (configuration not stated), the Acc. counts in test [8] is given as 60. For the same compound, in test [4], the Dose amounted to 106 µM/kg.

On to `CN1CCc2cccc3c2[C@H]1Cc1ccc(O)c(O)c1-3` [APOMORPHINE], for which the Acc. counts in test [8] was 361. Besides, the Dose in test [4] was 2.3 µM/kg.

Consider `CCCN1CCC[C@H](c2cccc(O)c2)C1`, for which the Acc. counts in test [8] was determined as 78. In addition, the Dose in test [4] amounted to 13 µM/kg.

In test [8], `CCCN1CCC[C@@H]2c3cc(O)ccc3CC[C@H]21` yielded an Acc. counts of 155. Further, in test [4], the Dose came to 1.06 µM/kg.

With `CN(C)C1CCc2c(O)cccc2C1` (configuration not stated), the Acc. counts in test [8] is on record as 52. Also, the Dose in test [4] is 100 µM/kg.

In test [8], `CCCN(CCC)[C@@H]1CCc2ccc(O)cc2C1` returned an Acc. counts of 46. Also, the Dose in test [4] turned out to be 0.31 µM/kg.
